Legend:
[1] = Hygroscopic stability for 24 hours (P-XRD); format: physicochemical; conditions: kept in the desiccator for 24 hours; 3.0 gms sample
Procedure: Hygroscopic Stability for 24 Hours:
Samples of crystalline form-S of Cabozantinib (S)-malate (3.0 gms) is kept in the desiccator for 24 hours.
(§1) PXRD analysis of compounds produced by the present invention were carried out using BRUKER IDS ADVANCE/AXS X-Ray diffractometer using Cu Kα radiation of wavelength 1.5406 A° and continuous scan speed of 0.03°/min.

[2] = Thermal stability at 60° C. (P-XRD); format: physicochemical; conditions: heating in a vacuum dryer at 60° C. for 24 hours; 3.0 gms sample
Procedure: Thermal Stability at 60° C.:
Samples of crystalline form-S of Cabozantinib (S)-malate (3.0 gms) is subjected to heating in a vacuum dryer at 60° C. for 24 hours.
as §1

Hygroscopic stability for 24 hours by P-XRD pattern [1]: stable
Thermal stability at 60° C. by P-XRD pattern [2]: stable
Structure (SMILES): COc1cc2nccc(Oc3ccc(NC(=O)C4(C(=O)Nc5ccc(F)cc5)CC4)cc3)c2cc1OC.O=C(O)C[C@H](O)C(=O)O [N-(4-(6,7-dimethoxyquinolin-4-yloxy)phenyl)-N′-(4-fluorophenyl)cyclopropane-1,1-dicarboxamide (S)-malate]

— US11261160B2, “Process for the preparation of N-(4-(6,7-dimethoxyquinolin-4-yloxy)phenyl)-N′-(4-fluorophenyl)cyclopropane-1, 1-dicarboxamide, (2S)-hydroxybutanedioate and its polymorphs thereof” (MSN LABORATORIES PRIVATE LIMITED, R&D CENTER, priority 2016, dated 2022)
